How the values were obtained:
5-HT2B receptor [1] = biological target: T1, 5-HT2B receptor (Homo sapiens, UniProt P41595); experiment: 5-HT2B competitive binding assay against 125I-radiolabeled 2,5-dimethoxy-4-iodoamphetamine (agonist radioligand); settings: result in words
From the text: (§1) The biological activity of representative compounds of the invention can be determined using a number of assays that are known.

5-HT2B receptor [2] = biological target: T1, 5-HT2B receptor; experiment: 5-HT2B functional assay (agonism), HTRF quantitation of IP1 accumulation; assay type: cell-based; settings: for 5-HT2B agonism (type of agonist): result in words
From the text: as §1

5-HT2B receptor [3] = biological target: T1, 5-HT2B receptor; experiment: 5-HT2B functional assay, antagonism against serotonin; assay type: cell-based; settings: result in words
Procedure: (§2) The biological activity of representative compounds of the invention can be determined using a number of assays that are known. For example, 5-HT2B functional assays were performed following the procedure reported by Porter, R. H. P., et al., Br. J. Pharmacol. 1999, 128, 13-20. 5-HT2B binding assays were performed following the procedure reported by Choi, D.-S., et al., FEBS Lett. 1994, 352, 393-399, using an agonist radioligand. D2 and D4 functional assays were performed following the method reported by Jensen, N. H., et al., Neuropsychopharmacology 2007, 33, 2303-2312.

D2 receptor = D2 receptor (Homo sapiens, UniProt P14416); experiment: D2 functional assay; assay type: cell-based
Chain of D2 receptor (P14416 whole entry): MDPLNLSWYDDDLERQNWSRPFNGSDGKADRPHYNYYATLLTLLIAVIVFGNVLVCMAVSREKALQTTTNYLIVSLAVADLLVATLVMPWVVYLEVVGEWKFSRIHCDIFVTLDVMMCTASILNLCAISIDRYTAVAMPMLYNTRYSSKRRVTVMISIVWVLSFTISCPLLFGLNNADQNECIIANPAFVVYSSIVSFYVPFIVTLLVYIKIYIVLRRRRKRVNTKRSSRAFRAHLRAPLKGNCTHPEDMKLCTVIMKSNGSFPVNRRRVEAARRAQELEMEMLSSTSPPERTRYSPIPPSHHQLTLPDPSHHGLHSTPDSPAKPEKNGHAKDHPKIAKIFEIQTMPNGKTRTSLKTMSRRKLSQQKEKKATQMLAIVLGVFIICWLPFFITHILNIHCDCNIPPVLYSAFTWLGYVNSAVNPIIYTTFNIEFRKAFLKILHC
Procedure: as §2

D4 receptor = biological target: T2, D4 receptor (Homo sapiens, UniProt P21917); experiment: D4 functional assay; assay type: cell-based; settings: result in words
T2 sequence (P21917 1-419): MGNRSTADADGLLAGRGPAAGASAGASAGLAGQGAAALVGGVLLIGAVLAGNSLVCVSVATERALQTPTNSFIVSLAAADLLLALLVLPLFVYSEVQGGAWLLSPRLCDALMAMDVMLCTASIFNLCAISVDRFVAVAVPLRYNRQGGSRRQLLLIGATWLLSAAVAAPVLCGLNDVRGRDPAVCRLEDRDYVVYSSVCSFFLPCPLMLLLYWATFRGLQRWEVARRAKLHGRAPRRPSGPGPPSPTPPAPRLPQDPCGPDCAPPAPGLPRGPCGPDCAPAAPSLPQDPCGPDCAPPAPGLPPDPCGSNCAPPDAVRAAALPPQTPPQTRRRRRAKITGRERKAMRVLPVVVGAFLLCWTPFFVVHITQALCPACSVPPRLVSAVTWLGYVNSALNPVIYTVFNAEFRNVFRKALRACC
Procedure: as §2

male rats = experiment: Effects on sexual function in rats; assay type: in vivo, rat; settings: gavage
From the text: Effects of Cabergoline on Sexual Function in Rats. […] This can be tested by seeing whether it can potentiate the induction of a conditioned partner preference. For example, a study could be performed where rats take the drug immediately before their first sexual experience with an almond scented female and 4 days later the cabergoline rats are put in an open field with two females, one scented and the other unscented. Males given their first, e.g., 10, copulatory experiences with scented females would show a significant conditioned ejaculatory preference to ejaculate preferentially with the scented female. […] Cabergoline could also be similarly tested on males that have had their ejaculations reduced to near zero by chronic administration of the SSRI fluoxetine. SSRIs are known to induce anorgasmia, and currently there is no treatment for this side effect.

T1 sequence (P41595 whole entry): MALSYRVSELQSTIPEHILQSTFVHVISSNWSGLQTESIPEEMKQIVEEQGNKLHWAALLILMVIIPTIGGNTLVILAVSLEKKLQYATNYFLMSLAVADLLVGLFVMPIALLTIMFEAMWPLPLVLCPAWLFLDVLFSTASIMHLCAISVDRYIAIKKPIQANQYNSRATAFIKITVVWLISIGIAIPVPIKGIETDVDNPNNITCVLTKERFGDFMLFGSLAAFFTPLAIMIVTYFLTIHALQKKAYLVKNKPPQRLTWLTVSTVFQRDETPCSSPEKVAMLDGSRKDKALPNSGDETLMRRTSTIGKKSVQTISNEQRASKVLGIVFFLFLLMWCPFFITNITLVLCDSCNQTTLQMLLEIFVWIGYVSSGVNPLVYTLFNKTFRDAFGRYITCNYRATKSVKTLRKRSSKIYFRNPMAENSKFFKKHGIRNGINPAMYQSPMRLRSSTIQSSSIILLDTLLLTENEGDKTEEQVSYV

Question: With `C=CCN1C[C@H](C(=O)N(CCCN2CCOCC2)C(=O)NCC)C[C@@H]2c3cccc4[nH]cc(c34)C[C@H]21` [Compound 1, (5R,8R,10R)-6-Allyl-N-[3-(morpholino)propyl]-N-[(ethylamino)carbonyl]-ergoline-8-carboxamide] as the molecule, how does the “activity/potency at 5-HT2B receptor in radioactive binding assay, compared with cabergoline” value (5-HT2B receptor [1]) read?
Answer: not significantly less active

Question: What about the “5-HT2B agonism (type of agonist)” value (5-HT2B receptor [2]) of the same molecule?
Answer: full agonists

Question: Which “5-HT2B agonism (type of agonist)” value (5-HT2B receptor [2]) does the source give for `CCNC(=O)N(CCCN(C)C)C(=O)[C@@H]1C[C@@H]2c3cccc4c3c(cn4C)C[C@H]2N(C)C1` [Compound 9, 1,6-Dimethylcabergoline] here?
Answer: no agonism

Question: What about the “5-HT2B antagonism against serotonin” value (5-HT2B receptor [3]) of the same molecule?
Answer: potent antagonists

Question: And the EC50 (D2 receptor)?
Answer: 1.4 nM

Question: And the Emax (D2 receptor)?
Answer: 50%

Question: And the “D2 agonism (type of agonist)” value (D2 receptor; result in words)?
Answer: potent but partial D2 agonist

Question: What about the “D4 agonism (type of agonist)” value (D4 receptor) of the same molecule?
Answer: full D4 agonist

Question: Which results are given for `CN(C)CCCNC(=O)[C@@H]1C[C@@H]2c3cccc4c3c(cn4C)C[C@H]2N(C)C1` [Compound 14, (5R,8R,10R)-1,6-Dimethyl-N-[3-(dimethylamino)propyl]ergoline-8-carboxamide]?
Answer: Emax (5-HT2B receptor [2]; read-out: 5-HT2B Emax): < 12%; 5-HT2B agonism (type of agonist) (5-HT2B receptor [2]): minimal to no agonism; 5-HT2B antagonism against serotonin (5-HT2B receptor [3]): potent antagonists

Question: Which results are given for `COC(OC)[C@@H]1C[C@@H]2c3cccc4c3c(cn4C)C[C@H]2N(C)C1` [Compound 15]?
Answer: 5-HT2B agonism (type of agonist) (5-HT2B receptor [2]): no agonism; 5-HT2B antagonism against serotonin (5-HT2B receptor [3]): potent antagonists

Question: Which results are given for `C=CCN1C[C@H](C(=O)N(CCCN(C)C)C(=O)NCC)C[C@@H]2c3cccc4[nH]cc(c34)C[C@H]21` [cabergoline]?
Answer: 5-HT2B agonism (type of agonist) (5-HT2B receptor [2]): full agonists; anticipatory level changes prior to copulation (anticipatory desire) (male rats): increased; ejaculation latencies vs controls (male rats): shorter ejaculation latencies; intromissions before ejaculation vs controls (male rats): more intromissions; number of ejaculations vs controls (male rats): significantly more times
